We go through 23 molecules from ChEMBL document CHEMBL4823288, “Discovery and Optimization of a Series of Benzofuran Selective ERAP1 Inhibitors: Biochemical and In Silico Studies” (ACS Med Chem Lett, 2021).

By IC50 is commonly meant the midpoint of a concentration-inhibition curve. Low values mean higher potency, high ones lower potency. In general, ΔTm refers to the change in melting temperature against a reference sample. As a reminder, the Ki is a measure of affinity in units of concentration, obtained from inhibition or displacement. Low values mean higher affinity, high ones lower affinity. For orientation: Km means the substrate concentration at which the rate is half of its maximum.

In data set [1] the target is Endoplasmic reticulum aminopeptidase 2 (Homo sapiens, UniProt Q6P179). The data set can be described thus: Inhibition of ERAP2 (unknown origin) using Arg-AMC as substrate.
Chain of Endoplasmic reticulum aminopeptidase 2 (Q6P179 whole entry): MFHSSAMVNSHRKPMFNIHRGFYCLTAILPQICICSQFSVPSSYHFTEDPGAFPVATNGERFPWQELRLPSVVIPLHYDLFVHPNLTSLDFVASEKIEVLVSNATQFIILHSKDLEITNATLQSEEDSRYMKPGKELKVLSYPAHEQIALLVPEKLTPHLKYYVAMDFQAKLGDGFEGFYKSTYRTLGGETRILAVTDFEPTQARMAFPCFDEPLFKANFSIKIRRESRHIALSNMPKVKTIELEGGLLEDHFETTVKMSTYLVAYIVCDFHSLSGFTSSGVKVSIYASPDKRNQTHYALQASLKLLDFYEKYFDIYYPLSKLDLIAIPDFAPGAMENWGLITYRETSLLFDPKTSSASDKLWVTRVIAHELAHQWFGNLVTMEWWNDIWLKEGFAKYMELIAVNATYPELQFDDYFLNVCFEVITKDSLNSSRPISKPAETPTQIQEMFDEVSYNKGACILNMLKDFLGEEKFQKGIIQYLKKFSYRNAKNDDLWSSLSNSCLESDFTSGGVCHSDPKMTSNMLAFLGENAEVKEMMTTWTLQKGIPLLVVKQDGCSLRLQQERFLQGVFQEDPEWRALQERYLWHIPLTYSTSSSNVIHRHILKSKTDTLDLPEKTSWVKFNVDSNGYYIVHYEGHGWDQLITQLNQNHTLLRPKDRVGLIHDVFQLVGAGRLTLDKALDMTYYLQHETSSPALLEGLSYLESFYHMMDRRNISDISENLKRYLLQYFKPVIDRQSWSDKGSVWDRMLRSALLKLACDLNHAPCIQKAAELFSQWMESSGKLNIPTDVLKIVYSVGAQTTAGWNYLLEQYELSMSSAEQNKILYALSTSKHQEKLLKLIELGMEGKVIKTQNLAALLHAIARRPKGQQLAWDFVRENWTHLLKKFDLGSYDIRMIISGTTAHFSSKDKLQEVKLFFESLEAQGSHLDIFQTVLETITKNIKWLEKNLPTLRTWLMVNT
The next data set has as its target Aminopeptidase N (Homo sapiens, UniProt P15144). The data set can be described thus: Inhibition of APN (unknown origin) using Ala-AMC as substrate.
The target of data set [2] is T1, Endoplasmic reticulum aminopeptidase 1 (Homo sapiens, UniProt Q9NZ08).
Description: Inhibition of wild type ERAP1 (unknown origin) using L-Rho-Succ-FKARKF as substrate preincubated for 15 mins followed by substrate addition and measured after 20 mins by flourescence assay
In data set [3] the target is T2, Cytochrome P450 3A4 (Homo sapiens, UniProt P08684). The data set can be described thus: Inhibition of CYP3A4 (unknown origin) using midazolam as substrate. In kind it is ADME.
T2 sequence (P08684 whole entry): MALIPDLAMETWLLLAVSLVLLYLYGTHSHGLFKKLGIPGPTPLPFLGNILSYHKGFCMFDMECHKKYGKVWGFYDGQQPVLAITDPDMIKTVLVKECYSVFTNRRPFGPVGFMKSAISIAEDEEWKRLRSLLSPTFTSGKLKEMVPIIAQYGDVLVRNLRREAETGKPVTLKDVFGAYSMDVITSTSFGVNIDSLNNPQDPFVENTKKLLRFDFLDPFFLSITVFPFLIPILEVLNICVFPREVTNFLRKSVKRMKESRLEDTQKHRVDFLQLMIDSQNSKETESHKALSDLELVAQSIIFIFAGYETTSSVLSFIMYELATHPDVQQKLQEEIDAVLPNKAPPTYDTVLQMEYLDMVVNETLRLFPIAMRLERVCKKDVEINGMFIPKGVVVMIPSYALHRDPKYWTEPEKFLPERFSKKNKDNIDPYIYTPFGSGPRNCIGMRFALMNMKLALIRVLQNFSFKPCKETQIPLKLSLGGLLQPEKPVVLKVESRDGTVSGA
Data set [4] can be described thus: Microsomal stability in mouse liver microsomes assessed as intrinsic clearance. It is filed as ADME, Microsome. To be noted: read-out: CLH. Background: Microsomes from liver hold many membrane-bound enzymes, among them those of drug oxidation.
For data set [5], the target named is T2, Cytochrome P450 3A4. Description: Inhibition of CYP3A4 (unknown origin) using testosterone as substrate. In kind it is ADME.
Data set [6] concerns the target T1, Endoplasmic reticulum aminopeptidase 1. To be noted: dose 10.0 µM, time 30.0 min.
Data set [7] is described as follows: Microsomal stability in rat liver microsomes assessed as intrinsic clearance. In kind it is ADME, Microsome. Particulars: read-out: CLH.
Data set [8] can be described thus: Permeability of compound across apical to basolateral side in human Caco2 cells. It is filed as ADME, cell-based. Particulars: Caco-2, read-out: permeability. Background: Passage across Caco-2 layers is used to estimate intestinal permeability.
Data set [9] can be described thus: Microsomal stability in human liver microsomes assessed as intrinsic clearance. Particulars: read-out: CLH. It is filed as ADME, Microsome.
Data set [10] deals with T1, Endoplasmic reticulum aminopeptidase 1. The data set can be described thus: Inhibition of ERAP1 (unknown origin) using L-Rho-(D)-Q as substrate.
For data set [11] the target is unchanged. Description: Inhibition of ERAP1 (unknown origin) using L-Rho-Succ-AFKARKF as substrate.
The target is the same in data set [12]. The data set can be described thus: Inhibition of ERAP1 (unknown origin) using L-Rho-Succ-FKARKF as substrate.
The nature of data set [13]: Stability in human hepatocytes assessed as intrinsic clearance. It is filed as ADME, cell-based, Hepatocyte.
Substrate in data set [14]: CC(C)C[C@H](N)C(=O)Nc1ccc2c(c1)Oc1cc(NC(=O)[C@@H](CCC(N)=O)N[C@@H](C)C(=O)N[C@@H](Cc3ccccc3)C(=O)N[C@@H](CCCCN)C(=O)N[C@@H](C)C(=O)N[C@@H](CCCNC(=N)N)C(=O)N[C@@H](CCCCN)C(=O)N[C@@H](Cc3ccccc3)C(=O)O)ccc1C21OC(=O)c2ccccc21
Particulars: Homo sapiens.

Substrate in data set [15]: CC(C)C[C@H](N)C(=O)Nc1ccc2c(c1)Oc1cc(NC(=O)[C@@H](CCC(N)=O)N[C@@H](Cc3ccccc3)C(=O)N[C@@H](CCCCN)C(=O)N[C@@H](C)C(=O)N[C@@H](CCCNC(=N)N)C(=O)N[C@@H](CCCCN)C(=O)N[C@@H](Cc3ccccc3)C(=O)O)ccc1C21OC(=O)c2ccccc21
Particulars: Homo sapiens.

Substrate in data set [16]: CC(C)C[C@H](N)C(=O)Nc1ccc2c(c1)Oc1cc(NC(=O)[C@H](N)CCC(N)=O)ccc1C21OC(=O)c2ccccc21
Particulars: Homo sapiens.

Substrate in data set [17]: CC(C)C[C@H](N)C(=O)Nc1ccc2c(c1)Oc1cc(NC(=O)[C@@H](CCC(N)=O)N[C@@H](CCCCN)C(=O)N[C@@H](C)C(=O)N[C@@H](CCCNC(=N)N)C(=O)N[C@@H](CCCCN)C(=O)N[C@@H](Cc3ccccc3)C(=O)O)ccc1C21OC(=O)c2ccccc21
Description: Inhibition of ERAP1 (unknown origin) using L-Rho-Succ-KARKF as substrate
To be noted: Homo sapiens.

Where only a bound is given, the exact number is not on record here.

Chain of Aminopeptidase N (P15144 whole entry): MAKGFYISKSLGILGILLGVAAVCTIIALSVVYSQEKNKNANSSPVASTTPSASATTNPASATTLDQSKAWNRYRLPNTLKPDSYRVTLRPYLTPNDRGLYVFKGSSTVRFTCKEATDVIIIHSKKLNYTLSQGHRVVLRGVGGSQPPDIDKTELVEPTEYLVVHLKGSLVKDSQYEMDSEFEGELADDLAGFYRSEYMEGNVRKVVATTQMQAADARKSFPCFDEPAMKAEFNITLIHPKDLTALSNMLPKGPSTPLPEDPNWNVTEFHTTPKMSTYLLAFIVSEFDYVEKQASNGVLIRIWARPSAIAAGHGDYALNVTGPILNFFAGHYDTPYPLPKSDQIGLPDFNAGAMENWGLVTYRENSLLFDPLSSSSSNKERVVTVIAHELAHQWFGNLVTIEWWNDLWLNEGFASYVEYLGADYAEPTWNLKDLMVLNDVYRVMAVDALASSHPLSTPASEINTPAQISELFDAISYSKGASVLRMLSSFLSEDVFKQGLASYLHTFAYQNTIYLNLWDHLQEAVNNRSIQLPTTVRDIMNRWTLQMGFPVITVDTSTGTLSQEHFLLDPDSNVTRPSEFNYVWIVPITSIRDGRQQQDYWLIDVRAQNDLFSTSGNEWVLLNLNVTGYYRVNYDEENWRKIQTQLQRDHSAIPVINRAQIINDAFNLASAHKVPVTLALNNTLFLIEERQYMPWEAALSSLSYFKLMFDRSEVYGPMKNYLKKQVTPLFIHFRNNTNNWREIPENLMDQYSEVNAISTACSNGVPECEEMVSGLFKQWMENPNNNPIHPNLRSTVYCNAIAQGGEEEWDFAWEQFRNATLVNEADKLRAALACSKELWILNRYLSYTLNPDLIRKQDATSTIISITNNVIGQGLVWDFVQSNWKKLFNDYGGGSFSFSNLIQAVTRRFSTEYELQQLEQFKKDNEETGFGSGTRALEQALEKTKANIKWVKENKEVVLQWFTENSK

For the molecule `O=C(N[C@@H](Cc1ccccc1)C(=O)O)c1cc(F)cc2cc(-c3ccc(Cl)cc3)oc12`, the IC50 in [1] was above 30 µM; at Aminopeptidase N, above 30 µM; in data set [2], 1.76 µM.

With `O=C(NC1(C(=O)O)CCCCC1)c1cccc2cc(-c3ccc(Cl)cc3)oc12`, the IC50 in data set [1] is above 30 µM; on Aminopeptidase N, above 30 µM; in data set [2] it was 0.12 µM.

As for `O=C(NC1(C(=O)O)Cc2ccccc2C1)c1cc(F)cc2cc(-c3ccc(Cl)cc3)oc12`, the IC50 in [1] is above 30 µM; against Aminopeptidase N, above 30 µM; in data set [2], 0.115 µM.

Take `CC(C)(NC(=O)c1cc(F)cc2cc(-c3ccc(Cl)cc3)oc12)C(=O)O`: the IC50 in [1] was above 30 µM; at Aminopeptidase N it was above 30 µM; in data set [2] it was 0.698 µM; against Cytochrome P450 3A4 [3], above 30 µM; on Cytochrome P450 3A4 [5] it was above 30 µM. The microsomal CLint in [4] is below 20 µL/min/mg; in data set [7] it was 25 µL/min/mg; in data set [9], 33 µL/min/mg. Also, the ΔTm in data set [6] was 0.94 °C. Also, the Papp A→B in data set [8] stood at 10.8 ×10⁻⁶ cm/s.

In data set [2], `C[C@H](NC(=O)c1cc(F)cc2cc(-c3ccc(Cl)cc3)oc12)C(=O)O` showed an IC50 of 4.44 µM.

In data set [10], `CC(C)C[C@H](N)C(=O)Nc1ccc2c(c1)Oc1cc(NC(=O)[C@H](N)CCC(N)=O)ccc1C21OC(=O)c2ccccc21` (some centres not stated) displayed a Ki of 335 µM.

In turn, `O=C(NC1(C(=O)O)CCC1)c1cc(F)cc2cc(-c3ccc(C(F)(F)F)cc3)oc12` gave an IC50 in data set [2] of 1.62 µM. The ΔTm in data set [6] was found to be 0.5 °C. Moreover, the Papp A→B in [8] came out at 18.4 ×10⁻⁶ cm/s.

Turning to `O=C(NC1(C(=O)O)CCCCC1)c1cc(F)cc2cc(-c3ccc(Cl)cc3)oc12`, the IC50 in data set [1] was above 30 µM; at Aminopeptidase N, above 30 µM; in data set [2] it was 0.034 µM.

In turn, `COC(=O)C(C)(C)NC(=O)c1cc(F)cc2cc(-c3ccc(Cl)cc3)oc12` registered a half-inhibitory concentration (IC50) in data set [2] above 10 µM.

In [2], `CCC(C)(NC(=O)c1cc(F)cc2cc(-c3ccc(C(F)(F)F)cc3)oc12)C(=O)O` (configuration not stated) returned an IC50 of 2.68 µM.

As to `O=C(NC1(C(=O)O)CCCCC1)c1cccc2c(Br)c(-c3ccc(Cl)cc3)oc12`, the IC50 in data set [1] is above 30 µM; at Aminopeptidase N it was above 30 µM; in data set [2], 0.151 µM.

As for `CC(C)(NC(=O)c1cccc2cc(-c3ccc(Cl)cc3)oc12)C(=O)O`, the results for the IC50 (in data set [1]; against Aminopeptidase N; in [2]) were above 30 µM, above 30 µM and 1.03 µM, respectively.

`O=C(N[C@H](Cc1ccccc1)C(=O)O)c1cc(F)cc2cc(-c3ccc(Cl)cc3)oc12`: the IC50 was above 30 µM in data set [1], above 30 µM on Aminopeptidase N and 0.262 µM in data set [2].

`O=C(NC1(C(=O)O)CCCC1)c1cc(F)cc2cc(-c3ccc(Cl)cc3)oc12`: the figures for the IC50 (in data set [1]; against Aminopeptidase N; in data set [2]) were above 30 µM, above 30 µM and 0.099 µM, respectively.

In the case of `O=C(NC1(C(=O)O)CC1)c1cc(F)cc2cc(-c3ccc(Cl)cc3)oc12`, the IC50 in [1] is above 30 µM; at Aminopeptidase N, above 30 µM; in [2], 1.12 µM.

In turn, `CC(C)C[C@H](N)C(=O)Nc1ccc2c(c1)Oc1cc(NC(=O)[C@@H](CCC(N)=O)N[C@@H](C)C(=O)N[C@@H](Cc3ccccc3)C(=O)N[C@@H](CCCCN)C(=O)N[C@@H](C)C(=O)N[C@@H](CCCNC(=N)N)C(=O)N[C@@H](CCCCN)C(=O)N[C@@H](Cc3ccccc3)C(=O)O)ccc1C21OC(=O)c2ccccc21` (some centres not stated) displayed a Ki in data set [11] of 563 µM.

In the case of `CN(C(=O)c1cc(F)cc2cc(-c3ccc(Cl)cc3)oc12)C(C)(C)C(=O)O`, the IC50 in [2] was determined as 1.97 µM.

Consider `CC(C)(NC(=O)c1cc(F)cc2cc(-c3ccc(Cl)cc3)oc12)c1nnn[nH]1`, for which, in data set [2], it took 0.275 µM to reach half-maximal inhibition (IC50).

In data set [12], `CC(C)C[C@H](N)C(=O)Nc1ccc2c(c1)Oc1cc(NC(=O)[C@@H](CCC(N)=O)N[C@@H](Cc3ccccc3)C(=O)N[C@@H](CCCCN)C(=O)N[C@@H](C)C(=O)N[C@@H](CCCNC(=N)N)C(=O)N[C@@H](CCCCN)C(=O)N[C@@H](Cc3ccccc3)C(=O)O)ccc1C21OC(=O)c2ccccc21` (some centres not stated) gave an inhibition constant (Ki) of 151 µM.

`CC(C)(NC(=O)c1cc(F)cc2cc(-c3ccc(Cl)cc3)oc12)C(N)=O`: in [2], the IC50 is above 10 µM.

As for `CCC(C)(NC(=O)c1cc(F)cc2cc(-c3ccc(Cl)cc3)oc12)C(=O)O` (configuration not stated), the IC50 in [1] is above 30 µM; on Aminopeptidase N it was above 30 µM; in data set [2], 0.377 µM; at Cytochrome P450 3A4 [3], above 30 µM; on Cytochrome P450 3A4 [5], above 30 µM. Also, the figures for the microsomal CLint in data set [4], in data set [7] and in data set [9] were 31 µL/min/mg, below 20 µL/min/mg and 32 µL/min/mg, respectively. The ΔTm in data set [6] is 0.82 °C. In addition, the CLH in [13] amounted to 0.25 mL/h/10^6 cells. Moreover, the Papp A→B in [8] is 8.5 ×10⁻⁶ cm/s.

With `CC(C)(NC(=O)c1cccc2c(Br)c(-c3ccc(Cl)cc3)oc12)C(=O)O`, the IC50 is above 30 µM in data set [1], above 30 µM against Aminopeptidase N and 1.76 µM in data set [2].

B1: Endoplasmic reticulum aminopeptidase 1 (Homo sapiens), Q9NZ08 (protein)
chain: MVFLPLKWSLATMSFLLSSLLALLTVSTPSWCQSTEASPKRSDGTPFPWNKIRLPEYVIPVHYDLLIHANLTTLTFWGTTKVEITASQPTSTIILHSHHLQISRATLRKGAGERLSEEPLQVLEHPRQEQIALLAPEPLLVGLPYTVVIHYAGNLSETFHGFYKSTYRTKEGELRILASTQFEPTAARMAFPCFDEPAFKASFSIKIRREPRHLAISNMPLVKSVTVAEGLIEDHFDVTVKMSTYLVAFIISDFESVSKITKSGVKVSVYAVPDKINQADYALDAAVTLLEFYEDYFSIPYPLPKQDLAAIPDFQSGAMENWGLTTYRESALLFDAEKSSASSKLGITMTVAHELAHQWFGNLVTMEWWNDLWLNEGFAKFMEFVSVSVTHPELKVGDYFFGKCFDAMEVDALNSSHPVSTPVENPAQIREMFDDVSYDKGACILNMLREYLSADAFKSGIVQYLQKHSYKNTKNEDLWDSMASICPTDGVKGMDGFCSRSQHSSSSSHWHQEGVDVKTMMNTWTLQKGFPLITITVRGRNVHMKQEHYMKGSDGAPDTGYLWHVPLTFITSKSDMVHRFLLKTKTDVLILPEEVEWIKFNVGMNGYYIVHYEDDGWDSLTGLLKGTHTAVSSNDRASLINNAFQLVSIGKLSIEKALDLSLYLKHETEIMPVFQGLNELIPMYKLMEKRDMNEVETQFKAFLIRLLRDLIDKQTWTDEGSVSERMLRSQLLLLACVHNYQPCVQRAEGYFRKWKESNGNLSLPVDVTLAVFAVGAQSTEGWDFLYSKYQFSLSSTEKSQIEFALCRTQNKEKLQWLLDESFKGDKIKTQEFPQILTLIGRNPVGYPLAWQFLRKNWNKLVQKFELGSSSIAHMVMGTTNQFSTRTRLEEVKGFFSSLKENGSQLRCVQQTIETIEENIGWMDKNFDKIRVWLQSEKLERM
Take B1: the Km in data set [14] was found to be 2 µM; in data set [15] it was 3.1 µM; in data set [16] it was 31.8 µM; in [17], 3.7 µM.
